Data from a melting point compilation (Tetko et al.; mined from patent text by program, amines drawn as free bases though some values may be those of a salt).

Row | melting point [°C] | SMILES
1 | 196 to 199 | O=C1COc2cc(NC(=O)C(=O)N3CCC(Oc4ccccc4)CC3)ccc2N1
2 | 120 | CC(C)N(c1ccc(C(=O)Oc2ccccc2)c(Cl)c1)S(=O)(=O)c1ccccc1
3 | 198 to 200 | CN(Cc1cccc2c1CN(C1CCC(=O)NC1=O)C2=O)C(=O)Nc1cccc(C(F)(F)F)c1 (stereo not given)
4 | 154 to 155 | N#CCC(O)(Cn1cncn1)c1ccc(F)cc1F (stereo not given)
5 | 190 to 194 | COc1ccc(C(=O)Nc2ccccc2)cc1NS(=O)(=O)c1ccccc1
6 | 206 to 209 | CCCc1nc2c(N)nc3cc(-c4ccccc4NC(C)=O)ccc3c2s1
7 | 180 | O=C(O)CCc1cccc(-c2nc(=O)c3ccccc3s2)c1
8 | 84 to 88 | Nc1cccc2c1cnn2-c1ccc(F)cc1
9 | 126 to 130 | Cc1ccc(-c2nc(Cc3cc4cc(C=O)ccc4o3)c(C)o2)cc1
10 | 250 to 252 | O=S1(=O)N=C(NCCc2ccccc2)Nc2ccc(Cl)cc21
11 | 270 to 273 | CCc1n[nH]c2cc(-c3nn(C(C)c4oc5ccccc5c(=O)c4-c4cccc(F)c4)c4ncnc(N)c34)ccc12 (stereo not given)
12 | 61 to 63 | FC(F)(F)c1nc(Cl)sc1C(=S)OCc1ccccc1
13 | 41 to 42 | COc1cccc(Oc2cccc(-c3ccccc3)c2)c1
14 | 215 to 219 | C=CCC(C#N)(c1ccc(F)cc1)c1ccccc1F (stereo not given)
15 | 180 | CCOC1=NC(N)=C(C(=O)OC)C(c2ccccc2F)C1C(=O)OC (stereo not given)
16 | 142 to 143 | O=C(Cn1cnc(-c2ccc(OCc3ccccc3)cc2)n1)c1ccc(F)cc1F
17 | 204 to 206 | CCCOc1ccccc1-c1nc2nc(NCCO)ncc2c(=O)[nH]1
18 | 190 to 192 | CC(C)c1ccc(-c2c(Cl)c(CCl)nc3sc4c(c23)CCN(Cc2ccccc2)C4)cc1

Row | melting point [°C] | SMILES
19 | 77 to 78 | Clc1ccc(-c2nc(COc3ccc(CCCn4ccnc4)cc3)co2)s1
20 | 129 to 130 | CCOP(=O)(COc1ccc(-c2c3ccccc3cc3sc4ccccc4c23)cc1)OCC
21 | 92 to 93 | CN(C)Cc1cccc(OCCCNc2nc(N)n[nH]2)c1
22 | 208 to 209 | C/C(=C\c1ccc(P(=O)(O)O)cc1)c1ccc2c(c1)C(C)(C)CCC2(C)C
23 | 100 to 101 | Oc1ccccc1-c1ccc[nH]1
24 | 91 | OC(CCSC(=S)Nc1ccc(Cl)cn1)c1ccccc1 (stereo not given)
25 | 190 to 192 | Cc1c(C(N)=O)c2ccccc2n2c(N(C)C)nc(-c3noc(C4CC4)n3)c12
26 | 149 to 150 | CCOC(=O)c1ccc2c(c1)N(C(=O)c1ccccc1)Cc1ccccc1O2
27 | 121 to 122 | CCCc1nn(-c2ccc(C(F)(F)F)cn2)cc1CCCOc1ccc(CC(=O)O)cc1OC
28 | 212 to 213 | O=c1c2c(nc3ccc(Cl)cn13)C(=Cc1ccccc1)CC2
29 | 115 to 117 | C(=C\c1ccc(N2CCCC2)cc1)/CC1CCN(Cc2ccccc2)CC1
30 | 92 to 93 | Cc1ccccc1C=Cc1ccccc1
31 | 62 to 64 | NCCCCc1cnc(-c2ccccc2)s1
32 | 59 to 63 | CCCC(=O)C(=CNc1cccc(COC(=O)c2ccccc2)c1)C(=O)OCC
33 | 145 to 147 | CC(=O)Oc1c(Cl)nc(-c2ccccc2)nc1Cl
34 | 135 to 137 | CN(c1ccccc1)c1ncnc2cc(C(F)(F)F)ccc12
35 | 286 to 288 | O=C(O)C1CC1c1cc(=O)c2ccc3ccccc3c2o1 (stereo not given)
36 | 259 to 260 | CC(=O)N1CCN(c2ccc(N=CNc3cc(Cl)cc(C(=Cc4ccccc4Cl)C(N)=O)c3)cc2)CC1

The remaining lines, values behind:

Row | SMILES | melting point [°C]
37 | NC(=O)CC(CC(N)=O)c1ccccc1Br | 168 to 170
38 | CCN(C1CC(C)(C)Oc2ccc(OCc3cc(OC)ccn3)cc21)S(C)(=O)=O (stereo not given) | 87 to 89
39 | NS(=O)(=O)CC(=O)c1ccc(Cl)cc1Cl | 136 to 139
40 | CCOc1nc2ccccc2nc1N(C)C(=O)N1CCN(c2cc(OC)cc(OC)c2)CC1 | 159 to 161
41 | CCN1C(=O)Cc2cc(Cl)cnc21 | 78 to 82
42 | CCCS(=O)(=O)N(C)CCc1ccncc1 | 109 to 110
43 | C=COCCONC(=O)c1cc(F)c(F)c(F)c1Nc1ccc(I)cc1Cl | 115 to 116
44 | O=C(O)Cc1cc(Cl)c(O)cc1F | 137 to 138
45 | O=C(C=Cc1cc(O)c(O)c([N+](=O)[O-])c1)c1ccccc1O | 231 to 234
46 | Cc1nc2ccccc2c(=O)n1-c1nnn[nH]1 | 225 to 226
47 | CCCc1c(OCCCCCc2c(Cl)c(Cl)cc(OC)c2OC)ccc(C(=O)OC)c1O | 113 to 115
48 | CNC(=S)NNCC1CC2c3cccc4[nH]cc(c34)CC2N(C)C1 (stereo not given) | 220 to 221
49 | C/C(=C(\C#N)C(=S)/N=C/N(C)C)N1CCCN(c2ccc(C#N)cc2)CC1 | 120 to 126
50 | O=C1c2ccccc2C(=O)N1Cc1cc([N+](=O)[O-])cc([N+](=O)[O-])c1 | 171
51 | CNC(=NCCSCc1cc(OC)ccn1)NC#N | 121 to 122
52 | O=C1CCNc2c1cc(Cl)cc2[N+](=O)[O-] | 132 to 135
53 | CCc1ccc(NC(=O)c2ccccc2CN2C(=O)C3(COc4cc5c(cc43)CCO5)c3ccccc32)cc1 (stereo not given) | > 230

Row | SMILES | melting point [°C]
54 | O=S(=O)(F)CCCCCCCc1ccc(OCc2ccccc2)cc1 | 35 to 38
55 | CCc1c(C)c(NC(=O)NC(C)(C)C)c(C)c2c1OCC2c1ccc(C(C)C)cc1 (stereo not given) | 207 to 209
56 | CCN(CC)C(=S)NC1CC2c3cccc4[nH]c(I)c(c34)CC2N(C)C1 (stereo not given) | 198
57 | O=C(N[C@H]1CCCNC1=O)c1cccc(F)c1F | 160 to 162
58 | CSC(Oc1cc(I)c2ncc(Br)cc2c1)C(=O)NC(C)(C)C (stereo not given) | 171 to 172
59 | C=CCOc1ccc(C=CC(=O)c2c(O)cc(OC)cc2OC)cc1 | 112
60 | N#CN1CCC(Nc2ncc3ncnc(Nc4ccc(F)c(Cl)c4)c3n2)CC1 | 245 to 247
61 | C[C@@H]1[C@@H](S(=O)(=O)c2ccccc2)[C@@H]2O[C@@H]2C[C@@H]1O | 148
62 | CN(C)c1ccc(N(c2ccc(N(C)C)cc2)C2(c3ccc(N(C)C)cc3)OC(=O)c3cc(N(C)C)ccc32)cc1 (stereo not given) | 86 to 92
63 | CCN(CC)c1ccc(C2(N(c3ccccc3)c3ccccc3)OC(=O)c3nccnc32)cc1 (stereo not given) | 140 to 143
64 | Cn1c(COc2ccc(CC3SC(=O)N(C(c4ccccc4)(c4ccccc4)c4ccccc4)C3=O)cc2)nc2ccc(OCc3ccccc3)nc21 (stereo not given) | 88 to 92
65 | NC(=O)c1nc(Cl)n2c1CN=C(c1ccccc1Cl)c1cc(Cl)ccc1-2 | 285 to 288
66 | Cc1c(F)c([N+](=O)[O-])cc([N+](=O)[O-])c1F | 81 to 82
67 | CCCCCCCCCCc1cc2c(s1)NC(=O)CN=C2c1ccccc1C | 100 to 102
68 | CC(C)(C)OC(=O)Cc1ccc(CNC(=O)C2Cc3ccccc3N2S(=O)(=O)c2ccc(-c3cccc(C(F)(F)F)c3)cc2)cn1 (stereo not given) | 70
69 | O=S(CCCCCOc1ccc(C2=C(c3ccccc3)CCCc3cc(O)ccc32)cc1)CCCC(F)(F)C(F)(F)F (stereo not given) | 138 to 140
70 | Cc1c(SCCCN2CCOCC2)ccnc1CSc1nc2ccccc2[nH]1 | 149 to 150
